# Activity calls are given as the source filed them.
# Key:
# [1] = target: Mitogen-activated protein kinase 10 (Homo sapiens, UniProt P53779); experiment: Dose response biochemical screening assay for inhibitors of c-Jun N-Terminal Kinase 3 (JNK3). [Related pubchem assays: 746 ]
# [2] = target: T1, Sentrin-specific protease 8 (Homo sapiens, UniProt Q96LD8); assay type: functional
# T1 sequence (Q96LD8 whole entry): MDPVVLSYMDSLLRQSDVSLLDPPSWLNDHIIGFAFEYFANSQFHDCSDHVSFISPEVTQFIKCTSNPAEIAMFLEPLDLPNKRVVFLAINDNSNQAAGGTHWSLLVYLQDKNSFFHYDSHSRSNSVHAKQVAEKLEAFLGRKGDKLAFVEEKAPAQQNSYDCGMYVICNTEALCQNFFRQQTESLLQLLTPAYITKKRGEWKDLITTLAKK
# [3] = target: T2, Serine/threonine-protein phosphatase (Homo sapiens, UniProt Q9BPW0); experiment: PP5 phosphatase inhibitors, dose response, biochemical, fluorescence (AID 2395)
# T2 sequence (Q9BPW0 whole entry): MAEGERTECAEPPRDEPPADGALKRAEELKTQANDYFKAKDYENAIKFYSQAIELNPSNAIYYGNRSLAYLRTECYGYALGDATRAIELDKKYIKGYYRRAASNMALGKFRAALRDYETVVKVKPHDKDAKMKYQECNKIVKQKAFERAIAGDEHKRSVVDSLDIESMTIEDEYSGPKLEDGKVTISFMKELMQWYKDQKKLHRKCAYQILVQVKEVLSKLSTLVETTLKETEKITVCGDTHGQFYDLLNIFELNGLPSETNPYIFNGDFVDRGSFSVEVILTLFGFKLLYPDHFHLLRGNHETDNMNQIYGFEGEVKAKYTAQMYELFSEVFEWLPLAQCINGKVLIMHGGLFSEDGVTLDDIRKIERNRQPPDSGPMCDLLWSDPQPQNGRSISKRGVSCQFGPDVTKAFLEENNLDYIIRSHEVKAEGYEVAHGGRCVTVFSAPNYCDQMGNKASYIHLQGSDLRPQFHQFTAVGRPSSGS
# [4] = target: T3, Histone-lysine N-methyltransferase NSD2 (Homo sapiens, UniProt O96028); assay type: biochemical
# T3 sequence (O96028 whole entry): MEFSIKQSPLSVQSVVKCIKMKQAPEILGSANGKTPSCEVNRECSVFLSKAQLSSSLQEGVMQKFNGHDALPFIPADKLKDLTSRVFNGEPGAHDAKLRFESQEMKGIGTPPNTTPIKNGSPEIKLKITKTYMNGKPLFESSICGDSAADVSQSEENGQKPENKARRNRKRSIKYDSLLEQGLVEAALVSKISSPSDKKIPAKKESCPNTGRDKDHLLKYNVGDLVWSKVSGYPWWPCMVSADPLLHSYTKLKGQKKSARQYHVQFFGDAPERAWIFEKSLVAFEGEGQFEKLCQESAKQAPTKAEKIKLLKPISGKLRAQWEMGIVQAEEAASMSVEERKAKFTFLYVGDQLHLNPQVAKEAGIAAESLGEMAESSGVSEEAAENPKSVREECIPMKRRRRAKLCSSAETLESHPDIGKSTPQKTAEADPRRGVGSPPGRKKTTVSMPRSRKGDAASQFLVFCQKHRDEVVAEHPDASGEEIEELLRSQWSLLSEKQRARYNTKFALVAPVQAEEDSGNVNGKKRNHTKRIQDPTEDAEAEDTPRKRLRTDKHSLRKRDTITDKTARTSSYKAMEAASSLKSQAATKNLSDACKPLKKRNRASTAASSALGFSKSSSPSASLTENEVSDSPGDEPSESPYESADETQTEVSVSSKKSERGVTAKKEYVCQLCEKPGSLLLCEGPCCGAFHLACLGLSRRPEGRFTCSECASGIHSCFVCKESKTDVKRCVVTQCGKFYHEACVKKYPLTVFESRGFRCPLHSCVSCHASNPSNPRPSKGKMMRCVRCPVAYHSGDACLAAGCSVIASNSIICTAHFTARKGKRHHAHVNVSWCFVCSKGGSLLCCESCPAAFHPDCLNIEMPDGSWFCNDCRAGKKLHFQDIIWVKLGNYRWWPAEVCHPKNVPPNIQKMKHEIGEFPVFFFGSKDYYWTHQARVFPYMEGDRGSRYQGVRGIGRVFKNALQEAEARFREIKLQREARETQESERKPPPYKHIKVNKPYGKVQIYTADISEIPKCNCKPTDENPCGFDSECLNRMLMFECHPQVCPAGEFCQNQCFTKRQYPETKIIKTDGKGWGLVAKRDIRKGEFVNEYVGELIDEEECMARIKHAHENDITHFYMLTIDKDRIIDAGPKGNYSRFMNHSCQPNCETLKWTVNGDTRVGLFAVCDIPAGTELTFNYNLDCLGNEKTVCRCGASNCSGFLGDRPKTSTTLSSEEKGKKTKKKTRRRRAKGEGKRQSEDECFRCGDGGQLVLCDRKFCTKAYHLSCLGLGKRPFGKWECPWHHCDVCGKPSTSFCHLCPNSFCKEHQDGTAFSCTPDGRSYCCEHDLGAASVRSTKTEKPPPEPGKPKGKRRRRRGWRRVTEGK
# [5] = target: T1, Sentrin-specific protease 8; assay type: functional; remark: listed apart in the source
# [6] = target: Serine/threonine-protein phosphatase PP1-alpha catalytic subunit (Homo sapiens, UniProt P62136); experiment: PP1 phosphatase inhibitors, dose response, biochemical, fluorescence (AID 2394)
# Serine/threonine-protein phosphatase PP1-alpha catalytic subunit, sequence (P62136 whole entry): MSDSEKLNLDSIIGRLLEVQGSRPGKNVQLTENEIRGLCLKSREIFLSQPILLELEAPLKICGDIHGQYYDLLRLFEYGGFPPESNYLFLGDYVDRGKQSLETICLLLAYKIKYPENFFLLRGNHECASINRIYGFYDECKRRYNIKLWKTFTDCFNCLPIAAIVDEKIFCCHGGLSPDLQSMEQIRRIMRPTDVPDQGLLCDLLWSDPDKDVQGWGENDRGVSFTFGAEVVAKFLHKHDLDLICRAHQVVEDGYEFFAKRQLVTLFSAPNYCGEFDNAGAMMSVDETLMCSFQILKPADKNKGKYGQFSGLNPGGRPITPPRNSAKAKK
# [7] = target: Muscarinic acetylcholine receptor M1 (Rattus norvegicus, UniProt P08482); experiment: rat M1 positive allosteric modulator potency, dose response, cell-based, calcium mobilization, CHO-K1, ACh EC20 (AID 2425); assay type: functional
# Muscarinic acetylcholine receptor M1, sequence (P08482 whole entry): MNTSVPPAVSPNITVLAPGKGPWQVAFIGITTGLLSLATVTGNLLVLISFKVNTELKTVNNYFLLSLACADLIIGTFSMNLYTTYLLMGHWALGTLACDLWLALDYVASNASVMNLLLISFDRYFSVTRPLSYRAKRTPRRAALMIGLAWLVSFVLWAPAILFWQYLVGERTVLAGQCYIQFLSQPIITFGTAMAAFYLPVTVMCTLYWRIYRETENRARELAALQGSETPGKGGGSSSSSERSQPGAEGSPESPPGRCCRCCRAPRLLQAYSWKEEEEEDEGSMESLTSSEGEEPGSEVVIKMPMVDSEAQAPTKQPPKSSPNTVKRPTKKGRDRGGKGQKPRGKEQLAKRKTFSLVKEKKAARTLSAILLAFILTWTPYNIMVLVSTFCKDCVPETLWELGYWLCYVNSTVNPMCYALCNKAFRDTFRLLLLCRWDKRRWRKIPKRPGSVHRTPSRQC
# [8] = cytotoxicity toward HCT116 cells – cell-based, CellTiter-Glo luminescence, IC50, dose response (AID 1117332); assay type: functional; settings: HCT-116
# [9] = HCT116 cell viability decrease, GSK3B pretreatment – CellTiter-Glo, IC50, dose response (AID 1117339); assay type: functional; settings: HCT-116
# [10] = RKO cell viability reduction, dose response, CellTiter-Glo luminescence (AID 1117322); assay type: functional
# [11] = Dose-response inhibition of insulin secretion in a rat insulinoma line at 5 mM glucose (AID 1117331); assay type: functional, cell-based; settings: INS-1E
# [12] = cells; assay type: functional, cell-based; settings: INS-1E
# [13] = CellTiter-Glo luminescent dose response of DLD-1 viability loss (AID 1117352); assay type: functional
# [14] = SNU-C1 cell viability reduction, dose response, CellTiter-Glo luminescence (AID 1117323); assay type: functional, cell-based
# [15] = Concentration-dependent survival of SW480 colon cancer line, luminescence detection with CellTiter-Glo, half-maximal inhibitory concentration (AID 1117338); assay type: functional
# [16] = cytotoxicity toward HT-29 cells – cell-based, CellTiter-Glo luminescence, IC50, dose response (AID 1117330); assay type: functional
# [17] = tested on: Vero; experiment: cells; assay type: functional, cell-based; settings: Chlorocebus sabaeus
# [18] = tested on: Vero; experiment: West Nile virus antiviral activity, cell-based, CPE readout (AID 1621); assay type: functional; settings: Chlorocebus sabaeus
# [19] = P. falciparum late gametocyte killing, dose response, luminescence (AID 1117278); assay type: functional, cell-based;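 further: gametocytes exposed to compound for 24 hours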
# [20] = Jurkat T cell cytotoxicity, dose response, cytotoxicity control for P. falciparum gametocyte viability project, luminescence (AID 1117277); assay type: functional, cell-based;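 further: potency reflects loss of cellular ATP meaning fewer viable cells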
# [21] = A549 cell cytotoxicity, dose response, CellTiter-Glo luminescence, dry powder, set 17 (AID 1117284); assay type: functional, cell-based
# [22] = target: Sphingosine 1-phosphate receptor 4 (Homo sapiens, UniProt O95977); experiment: Fluorescence dose response cell-based high throughput screening assay for antagonists of the Sphingosine 1-Phosphate Receptor 4 (S1P4). [Related pubchem assays: 1524 (Confirmation in triplicates.), 1510 (Primary screen.)]; assay type: functional
# Sphingosine 1-phosphate receptor 4, sequence (O95977 whole entry): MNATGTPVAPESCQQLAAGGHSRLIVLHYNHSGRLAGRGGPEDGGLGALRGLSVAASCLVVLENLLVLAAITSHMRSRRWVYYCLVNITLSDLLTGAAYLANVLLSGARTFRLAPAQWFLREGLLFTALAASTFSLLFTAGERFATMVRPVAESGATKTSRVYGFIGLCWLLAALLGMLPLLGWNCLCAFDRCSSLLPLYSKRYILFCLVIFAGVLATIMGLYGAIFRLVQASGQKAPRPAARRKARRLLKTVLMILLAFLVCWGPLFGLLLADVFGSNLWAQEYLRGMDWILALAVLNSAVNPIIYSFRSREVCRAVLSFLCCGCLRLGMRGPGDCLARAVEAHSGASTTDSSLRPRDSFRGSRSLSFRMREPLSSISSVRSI
# [23] = target: Sphingosine 1-phosphate receptor 1 (Homo sapiens, UniProt P21453); assay type: functional;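 further: Tango beta-arrestin reporter U2OS cells stimulated with S1P near its EC80; inhibitor potency meaning antagonism of receptor activation by the natural agonist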
# Sphingosine 1-phosphate receptor 1, sequence (P21453 whole entry): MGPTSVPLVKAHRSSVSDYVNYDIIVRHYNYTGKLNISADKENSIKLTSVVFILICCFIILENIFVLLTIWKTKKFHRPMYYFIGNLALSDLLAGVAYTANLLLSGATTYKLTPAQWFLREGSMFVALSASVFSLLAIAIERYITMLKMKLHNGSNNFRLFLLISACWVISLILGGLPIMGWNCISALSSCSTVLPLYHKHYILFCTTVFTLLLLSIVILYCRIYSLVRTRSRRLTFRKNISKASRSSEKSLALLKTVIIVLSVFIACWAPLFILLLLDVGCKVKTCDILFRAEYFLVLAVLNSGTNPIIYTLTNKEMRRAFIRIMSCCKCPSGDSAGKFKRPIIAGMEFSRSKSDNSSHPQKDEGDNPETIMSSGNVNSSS
# [24] = miR-122 activators in hepatoma reporter cells, dose response, cell-based, Huh7 psiCHECK-miR122, Renilla luciferase, cherry-picked (AID 651956); assay type: functional;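 further: huh7 hepatoma cells stably carrying a psiCHECK-2 miR-122 sensor plasmid; renilla luciferase signal reporting endogenous miR-122 activity after 48 h compound exposure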
# [25] = target: T4, Microphthalmia-associated transcription factor (Homo sapiens, UniProt O75030); experiment: TRPM1 promoter luciferase signal decrease, dose response, MITF inhibitor project, cell-based, SK-MEL-5, cherry-picked, set 3 (AID 493073); assay type: functional
# T4 sequence (O75030 whole entry): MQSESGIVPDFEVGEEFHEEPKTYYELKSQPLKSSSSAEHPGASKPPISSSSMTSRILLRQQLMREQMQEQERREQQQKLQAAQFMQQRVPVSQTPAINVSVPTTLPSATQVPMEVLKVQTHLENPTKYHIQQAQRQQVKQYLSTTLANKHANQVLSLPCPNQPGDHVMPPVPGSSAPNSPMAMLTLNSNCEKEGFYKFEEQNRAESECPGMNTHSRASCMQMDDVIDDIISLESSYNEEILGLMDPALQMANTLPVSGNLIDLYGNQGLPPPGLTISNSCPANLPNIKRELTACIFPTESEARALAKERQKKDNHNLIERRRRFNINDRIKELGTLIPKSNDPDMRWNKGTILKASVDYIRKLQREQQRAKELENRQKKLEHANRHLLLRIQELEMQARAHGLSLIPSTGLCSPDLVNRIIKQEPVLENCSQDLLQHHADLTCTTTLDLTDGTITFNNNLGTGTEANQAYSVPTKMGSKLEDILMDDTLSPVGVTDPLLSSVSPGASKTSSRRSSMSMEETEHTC
# [26] = target: Galanin receptor type 2 (Homo sapiens, UniProt O43603); experiment: Dose Response cell-based high-throughput screening assay to identify antagonists of galanin receptor 2 (GALR2). [Related pubchem assays: 828, 866 ]; assay type: functional
# Galanin receptor type 2, sequence (O43603 whole entry): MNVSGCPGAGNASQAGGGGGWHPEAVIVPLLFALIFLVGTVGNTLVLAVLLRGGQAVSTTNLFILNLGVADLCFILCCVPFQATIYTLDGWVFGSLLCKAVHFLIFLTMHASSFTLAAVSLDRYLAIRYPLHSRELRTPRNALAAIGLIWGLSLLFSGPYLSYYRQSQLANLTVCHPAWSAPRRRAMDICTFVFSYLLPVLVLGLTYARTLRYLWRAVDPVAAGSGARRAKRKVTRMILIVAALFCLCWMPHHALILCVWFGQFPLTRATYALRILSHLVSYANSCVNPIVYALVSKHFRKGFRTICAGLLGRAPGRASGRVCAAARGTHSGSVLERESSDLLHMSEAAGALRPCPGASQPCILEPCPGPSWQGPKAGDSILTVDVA
# [27] = HEK293T cytotoxicity, dose response, cytotoxicity control for miR-122 modulator project, cell-based, activator set, cherry-pick (AID 720690); assay type: functional;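 further: HEK293T human cells scored for general mammalian cytotoxicity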
# [28] = THP-1 cell cytotoxicity, dose response, cytotoxicity control for Vif-APOBEC3G degradation inhibitor project, THP-1 cells (AID 1117359); assay type: functional; settings: Human immunodeficiency virus 1, THP-1
# [29] = target: Induced myeloid leukemia cell differentiation protein Mcl-1 (Homo sapiens, UniProt Q07820); assay type: functional
# Induced myeloid leukemia cell differentiation protein Mcl-1, sequence (Q07820 whole entry): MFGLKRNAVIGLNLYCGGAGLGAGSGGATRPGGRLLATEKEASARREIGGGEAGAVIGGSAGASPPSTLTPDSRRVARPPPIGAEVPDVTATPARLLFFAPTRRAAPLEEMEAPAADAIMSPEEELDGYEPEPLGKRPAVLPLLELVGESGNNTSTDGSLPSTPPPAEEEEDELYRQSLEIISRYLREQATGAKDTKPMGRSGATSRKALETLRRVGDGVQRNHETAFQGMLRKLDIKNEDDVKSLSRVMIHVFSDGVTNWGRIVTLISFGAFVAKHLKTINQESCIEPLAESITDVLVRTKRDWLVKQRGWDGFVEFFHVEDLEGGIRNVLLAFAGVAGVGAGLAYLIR
# [30] = target: E3 ubiquitin-protein ligase Mdm2 (Homo sapiens, UniProt Q00987); experiment: enhancers of MDM2-luciferase reporter signal, concentration-effect titration, project on inhibitors of MDM2 ubiquitin ligase, cellular assay, luminescent readout, 384-well plate format (AID 1394); assay type: functional;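 further: MDM2 E3 inhibitors raise luminescence so EC50 is for signal enhancement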
# E3 ubiquitin-protein ligase Mdm2, sequence (Q00987 whole entry): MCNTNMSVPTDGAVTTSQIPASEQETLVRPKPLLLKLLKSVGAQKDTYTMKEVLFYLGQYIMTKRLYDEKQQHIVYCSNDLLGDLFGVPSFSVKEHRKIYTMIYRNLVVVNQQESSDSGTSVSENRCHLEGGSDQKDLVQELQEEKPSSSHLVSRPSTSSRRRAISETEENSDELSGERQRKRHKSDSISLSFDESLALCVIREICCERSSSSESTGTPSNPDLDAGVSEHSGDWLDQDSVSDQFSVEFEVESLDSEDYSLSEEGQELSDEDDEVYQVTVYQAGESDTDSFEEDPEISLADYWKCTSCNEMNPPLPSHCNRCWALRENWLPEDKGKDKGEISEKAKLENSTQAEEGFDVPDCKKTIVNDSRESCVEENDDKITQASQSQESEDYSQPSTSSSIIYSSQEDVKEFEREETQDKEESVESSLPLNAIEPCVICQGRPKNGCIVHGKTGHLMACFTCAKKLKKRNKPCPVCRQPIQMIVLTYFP
# [31] = inhibitors of Bluetongue virus cytopathic effect, confirmation, arbovirus, BSR cells (AID 1250); assay type: functional;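 further: protection from viral cytopathic effect measured as cell viability by ATP luminescence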
# [32] = target: T5, Carboxy-terminal domain RNA polymerase II polypeptide A small phosphatase 1 (Homo sapiens, UniProt Q9GZU7); experiment: inhibitors of CTDSP1, concentration-response testing, biochemical assay, absorbance-based, actives from ultra-high-throughput screening (AID 540297); assay type: functional
# T5 sequence (Q9GZU7 whole entry): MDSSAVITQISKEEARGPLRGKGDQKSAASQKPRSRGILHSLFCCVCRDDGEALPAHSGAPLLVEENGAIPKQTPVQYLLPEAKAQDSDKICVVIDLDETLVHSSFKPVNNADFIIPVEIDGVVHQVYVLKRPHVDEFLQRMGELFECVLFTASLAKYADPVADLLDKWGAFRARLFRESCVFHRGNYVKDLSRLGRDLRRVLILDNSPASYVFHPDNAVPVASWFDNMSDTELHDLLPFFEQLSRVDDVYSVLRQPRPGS
# Mitogen-activated protein kinase 10, sequence (P53779 whole entry): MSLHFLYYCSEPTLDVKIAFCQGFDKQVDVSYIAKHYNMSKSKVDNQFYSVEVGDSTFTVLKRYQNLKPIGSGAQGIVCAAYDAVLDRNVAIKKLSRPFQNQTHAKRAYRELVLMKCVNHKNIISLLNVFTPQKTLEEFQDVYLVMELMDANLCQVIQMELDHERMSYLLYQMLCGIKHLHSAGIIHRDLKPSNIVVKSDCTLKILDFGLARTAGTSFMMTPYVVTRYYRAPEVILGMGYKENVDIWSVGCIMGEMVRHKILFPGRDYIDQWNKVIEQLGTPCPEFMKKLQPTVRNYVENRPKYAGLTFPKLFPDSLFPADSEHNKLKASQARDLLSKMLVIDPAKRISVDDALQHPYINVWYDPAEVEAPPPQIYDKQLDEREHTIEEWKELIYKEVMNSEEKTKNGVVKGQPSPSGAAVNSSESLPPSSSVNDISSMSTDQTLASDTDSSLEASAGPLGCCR
smiles,measurement,setting,value
O=C(c1cccc(F)c1)N1CCCC(C(=O)N2CCCC2)C1 (configuration not stated),IC50,[1],> 93.1 µM (not active)
CCOc1ccc(NC(S)=Nc2ccc3nsnc3c2)cc1,IC50,[2],5.72 µM (active)
same,IC50,[3],8.78 µM (active)
same,AC50,[4],4.61 µM (active)
same,IC50,[5],2.32 µM (active)
same,IC50,[6],> 67 µM (not active)
Cn1cc(-c2ccc(CN3C(=O)C(=O)c4c(F)ccc(F)c43)c(F)c2)cn1,EC50,[7],1.23 µM (active)
Cc1c(C)n(Cc2ccccc2)c2ccc(C(=O)OCCN(C)C)cc12 [INDOCATE],IC50,[8],11.8 µM (inactive)
same,IC50,[9],5.47 µM (inactive)
same,IC50,[10],12.8 µM (inactive)
same,IC50,[11],3.84 µM (active)
same,IC50,[12],14.9 µM (inactive)
same,IC50,[13],11.3 µM (inactive)
same,IC50,[14],12 µM (inactive)
same,IC50,[15],8.78 µM (inactive)
same,IC50,[16],> 6.67 µM (inactive)
CN(C)CCNC(=O)c1cc2sc3ccccc3c2s1,IC50,[17],21 µM (active)
same,IC50,[18],24.5 µM (active)
COc1ccc(N2C(=O)CSC23C(=O)N2CCCc4cccc3c42)cc1 (configuration not stated),IC50,[19],> 109 µM (inactive)
same,IC50,[20],> 83.3 µM (inactive)
Cn1cc(-c2cc(F)c(CN3C(=O)C(=O)c4cccc(F)c43)c(F)c2)cn1,EC50,[7],1.03 µM (active)
COc1ccc(-c2ccc3c(c2)O[C@@H](CN(C)Cc2ccc(-c4ccccc4)cc2)[C@@H](C)CN([C@@H](C)CO)S3(=O)=O)cc1,AC50,[21],32.6 µM (active)
CCc1ccccc1NC(=O)CN(C)C(=O)Cn1ncc(Cl)c(Cl)c1=O,IC50,[22],2.11 µM (active)
same,IC50,[23],13.6 µM (not active)
same,AC50,[24],13.2 µM (active)
same,AC50,[25],11 µM (active)
same,IC50,[26],7.62 µM (active)
same,AC50,[27],4.59 µM (active)
COc1cccc(-c2ccc(CN(C)C[C@@H]3Oc4cc(C#C[C@@H](C)O)ccc4S(=O)(=O)N([C@@H](C)CO)C[C@@H]3C)cc2)c1,AC50,[21],32.6 µM (active)
Cc1cc(C(=O)COC(=O)c2cc(O)c3ccccc3c2O)c(C)n1CC1CCCO1 (configuration not stated),CC50,[28],25.9 µM (active)
same,IC50,[29],3.09 µM (active)
Cc1noc(C)c1COc1ccc(C(=O)NCc2ccccn2)cc1,EC50,[30],2.96 µM (not active)
Cc1cc(C(=O)Nc2cccc3ccccc23)n(-c2ccccc2)n1,EC50,[30],25 µM (not active)
CCN(CC)CCNC(=O)C1CCN(S(=O)(=O)c2c(C)noc2/C=C/c2ccccc2F)CC1,IC50,[18],25 µM (active)
O=C(COC(=O)c1ccc(NS(=O)(=O)c2cccs2)cc1)Nc1nc2c(F)c(F)c(F)cc2s1,IC50,[31],46.2 µM (active)
same,IC50,[32],4.05 µM (active)
c1csc(-c2cnc3ccccc3n2)c1,IC50,[1],34 µM (not active)

# From ChEMBL document CHEMBL1201862, “PubChem BioAssay data set” (2004)
